7 compounds from patent publication US20150020915A1, “Antiperspirant Spray Devices and Compositions” (The Procter & Gamble Company, priority 2013, published 2015) can be followed below.

On this data set, the source says:
Solubility may be determined by measuring the amount of light transmittance (a light transmittance value) through a simple mixture of the non-volatile silicone fluid and liquid activation enhancer at the same weight/weight concentrations as in a final antiperspirant composition.
Solubility of a liquid activation enhancer in a non-volatile silicone may be determined by measuring the amount of light transmittance (light transmittance value) through a simple mixture of the non-volatile silicone fluid and liquid activation enhancer at the same weight/weight concentrations as in a final antiperspirant composition.
The Spectronic Genesys 10 V is utilizes a tungsten-halogen light source and has a spectral bandwidth of 5 nm, a wavelength range of 325 to 1100 nm, accuracy of ±1 nm and a repeatability of ±0.5 nm. Readouts include absorbance, transmittance and concentration. The spectrophotometer is set to 640 nm wavelength and the percent transmittance mode/readout. Polystyrene spectrometer cuvettes having a 1 cm optical light path and transmittance between ˜340 nm and ˜900 nm are used. One suitable example of a spectrometer cuvette is available from VWR International LLC under Catalog #97000-584 having a 2.5 to 4.5 ml capacity. The spectrophotometer is calibrated according to the manufacturer's instructions using a reference cuvette and composition comprised of just the non-volatile silicone fluid of interest. For example, if the test composition comprises 50 centistoke dimethicone and 15% w/w of isopropyl myristate, then the spectrometer is calibrated using a cuvette containing just 50 centistoke dimethicone. Sample cuvettes are filled sufficiently with a test composition of a non-volatile silicone fluid and liquid activation enhancer so that the light path of the spectrophotometer passes through the test composition in the cuvette. The sample cuvettes are shaken well just prior to taking a light transmittance reading.

Regarding `CCCCCCCCCCCCCCCCCC(=O)OCCCC` [butyl stearate], the light transmittance value entry is recorded as “about 100%”.
As for `CCCCCCCCCCCCCC(C)C` [isohexadecane], the light transmittance value entry is listed as “about 100%” and the “solubility in 50 centistoke dimethicone (in words)” value (“solubility” below) was “soluble”.
In the case of `CCCCCCCCCCCCCC(=O)OC(C)C` [isopropyl myristate], the light transmittance value entry is “about 101%”.
On the same count and under the same terms, as for `CCCCCCCCCCCCCCCC(=O)OC(C)C` [isopropyl palmitate], the entry is “about 101%”.
Consider `CCCCCCCCCCC(CO)CCCCCCCC` (centres unmarked) [octyldodecanol], for which the “solubility” value is recorded as “soluble in the 50 centistoke dimethicone at some (lower) concentrations”.
PPG-14 butyl ether: the “solubility” value is “insoluble”.
mineral oil: the “solubility” value was “soluble in 50 centistoke dimethicone at some (lower) concentrations”.
